Source: patent US20250032598A1, “Compounds, Pharmaceuticals, Formulations, and Methods for Treating and Preventing RNA Virus Infections and Associated Diseases” (ASAVI LLC, priority 2023, published 2025)
Where two headings read alike, the source gives them in different places.

What was measured:
[1] = test system: SARS-CoV-2; assay type: in vivo, Syrian hamsters
[2] = test system: influenza; conditions: cited from earlier work
[3] = female Syrian hamsters, lung homogenates 96 hours after infection, 50,000 KIU/kg intravenously 2 times a day for 4 days, Lip-APR = composition 2
[4] = male Syrian hamsters, lung homogenates 96 hours after infection, 50,000 KIU/kg intravenously 2 times a day for 4 days, Lip-APR = composition 2
[5] = male and female Syrian hamsters pooled, lung homogenates, 10,000 KIU/ml, 50,000 KIU/kg intravenously

For aprotinin, the “Infectious titer lg (TCID50/mL) ± SD” value [1, 3] was 4.38±0.85 lg (TCID50/mL), the “Viral load Ct ± SD” value [1, 3] was 17.51±1.04 Ct and the “Anti-SARS-CoV-2/COVID-19 efficacy (in words)” value ([1]; intravenous, 50,000 KIU/kg, versus untreated control) was “no antiviral activity”. For the same substance, the “Infectious titer lg (TCID50/mL) ± SD” value [1, 4] was 3.88±0.48 lg (TCID50/mL), the “Viral load Ct ± SD” value [1, 4] was 17.51±1.28 Ct and the “Infectious titer lg (TCID50/mL) ± SD” value [1, 5] was 4.13±0.69 lg (TCID50/mL). For the same substance, the “Viral load Ct ± SD” value [1, 5] was 17.72±1.10 Ct, the “Reduction in viral load compared with patients treated with Ingavirin” value ([2]; APR aerosol, patients) was “approximately 10 fold” and the “Side effects and discomfort” value ([2]; patients of the APR group) was “not identified”. The “Duration of clinical symptoms, shorter than in the Ingavirin group” value ([2]; rhinorrhea, weakness, headache, sore throat, cough, chest pain, fever) was 1 to 2 days.
